Reference: patent US20170058314A1, “NOVEL METHODOLOGY FOR IDENTIFYING ANTI-PERSISTER ACTIVITY AND ANTIMICROBIAL SUSCEPTIBILITY FOR BORRELIA BURGDORFERI AND OTHER BACTERIA” (priority 2014, published 2017)
Converted amounts (≈) assume the structure as drawn. “And” between values parts separate entries of the source, which are not always exact repeats. Equal entries are not always repeated.

What was measured:
B. burgdorferi = conditions: after 72 h; Kraiczy et al., 2001; cited from earlier work
[1] = tested on: S. aureus strains (Newman, USA300, CA-409, CA-127, NY-315); assay: Rapid SYBR Green/PI antibiotic susceptibility test; assay type: cell-based, Staphylococcus aureus; conditions: for cut-off (averaged proportion of killed cells) for resistant strains / cut-off (averaged proportion of killed cells) for susceptible strains: 100 μg/mL, 1.5 hours
[2] = tested on: B. burgdorferi (growing, strain B31); assay: MIC determination, standard microdilution method; assay type: cell-based, Borrelia burgdorferi; conditions: Borreliella burgdorferi; growing B. burgdorferi; read-out: MIC
M. tuberculosis H37Ra = assay type: cell-based, Mycobacterium tuberculosis; conditions: pH 5.9
S. aureus = conditions: Zhu et al., 2005; cited from earlier work
[3] = tested on: stationary phase B. burgdorferi persisters (strain B31); assay: NCI compound library screen, SYBR Green I/PI assay (plate reader); conditions: Borreliella burgdorferi, 168 h, read-out: Residual viable cells (SYBR Green I/PI assay)
[4] = tested on: stationary phase B. burgdorferi persisters (strain B31); assay: NCI compound library rescreen, epifluorescence microscope counting; conditions: Borreliella burgdorferi, 168 h
[5] = tested on: E. coli strains (W3110, UTI89, CFT073, KTE181); assay: Rapid SYBR Green/PI antibiotic susceptibility test; assay type: cell-based, Escherichia coli; conditions: for percent killed, sensitive strain W3110: others 25 μg/mL
E. coli W3110 = assay: MIC by broth microdilution (OD600) and SYBR Green/PI; assay type: cell-based; conditions: Escherichia coli; E. coli W3110, overnight incubation
Description: The Kirby-Bauer disk diffusion assay was used to determine the susceptibility of the various strains to antibiotics. Instructions and also interpretation of zone diameters were made using the established standards as listed in the Clinical and Laboratory Standards Institute (CLSI). Briefly, bacterial cultures were adjusted to a 0.5 McFarland turbidity standard and spread onto Mueller-Hinton agar. Paper Disks were impregnated onto the agar and the antibiotics at concentrations recommended by CLSI were pipetted onto each blank disk and allowed to air dry for 10 minutes. The plates were incubated at 37° C. overnight before the zone of inhibition was measured in millimeters. […]
The staining dye for Staphylococcus aureus, Escherichia coli, Acinetobacter baumanii, and Mycobacterium tuberculosis were made by mixing SYBR Green I to propidium iodide (1:3) in 100 μl distilled H2O. […] The green and red fluorescence intensity was detected using a Synergy H1 microplate reader by Bio Tek Instruments (VT, USA) at excitation wavelength of 485 nm, 538 nm (green emission), and 612 nm (red emission). The percentage of live cells in each sample was determined by a regression equation generated by a standard curve. […] The staining mixture was added to each sample and the green/red fluorescent ratios were measured as described above. […]

E. coli UTI89 persisters = assay: Persister assay (CFU enumeration and SYBR Green/PI); assay type: cell-based, Escherichia coli; conditions: ampicillin 100, ofloxacin 5, polymycin B 10, gentamicin 20 μg/mL
Method: Stationary phase cultures of E. coli UTI89 were treated with ofloxacin (5 μg/mL) for 4 hours to enrich for persisters, followed by drug exposure with different antibiotics including ampicillin (100 μg/mL), ofloxacin (5 μg/mL), polymycin B (10 μg/mL) and gentamicin (20 μg/mL). The bacterial viability was determined by CFU enumeration and SYBR Green/PI assay as described above.

[6] = tested on: stationary phase B. burgdorferi persisters (strain B31); assay: epifluorescence microscope counting after SYBR Green I/PI staining, FDA drug screen
[7] = tested on: stationary phase B. burgdorferi persisters (strain B31); assay: SYBR Green I/PI viability assay (plate reader), FDA-approved drug library screen
[8] = tested on: log phase and stationary phase B. burgdorferi culture; assay: Antibiotic exposure assay, SYBR Green I/PI (drugs alone and combinations); conditions: Borreliella burgdorferi, 168 h, read-out: Live Cell % (residual viable B. burgdorferi), ten-day-old stationary phase culture enriched with micro-colonies, 10 μg/mL each drug, 7 days
Procedure, shortened: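 Stationary-phase or round-body B. burgdorferi exposed 7 days at 33 °C to drugs alone or combined at 10 μg/mL each (single-compound screen: 50 μM final). Viability by SYBR Green I/PI, ex 485, em 535/635 nm; percent live from regression of green/red ratio, corrected by direct microscopy counting.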

[9] = tested on: B. burgdorferi log and stationary phase cultures; assay: epi-fluorescence microscope counting after antibiotic exposure (persister frequency, planktonic forms); assay type: cell-based, Borrelia burgdorferi
Method: Specimens were examined on a Nikon Eclipse E800 microscope equipped with differential interference contrast (DIC) and epi-fluorescence illumination, and recorded with a Spot slider color camera. Cell proliferation assays were performed by direct counting using a bacterial counting chamber (Hausser Scientific Partnership) and DIC microscopy. SYBR Green I/PI assay was performed to assess the viability of B. burgdorferi. The ratio of live (green) and dead (red) B. burgdorferi was calculated by counting these cells using a bacterial counting chamber and epi-fluorescence microscopy. The three representative images of every sample were captured for quantitative analysis. Image Pro-Plus software was applied for measuring the biomass (fluorescence intensity) of different forms (spirochetes, round body, and microcolony) of B. burgdorferi as previously described (Shopov and Williams, 2000).
To qualitatively determine the effect of antibiotics, 10 μL of each compound from the pre-diluted plate or pre-diluted stock was added to stationary phase B. burgdorferi culture in the 96-well plate. The final volume per well was adjusted to 100 μL at a concentration of 10 μg/mL for each antibiotic. Plates were sealed and placed in a 33° C. incubator for 7 days. The SYBR Green I/PI viability assay was used to assess the live and dead cells after antibiotic exposure as described (Feng, Wang, Shi, et al., 2014). Briefly, 10 μL of SYBR Green I (10,000×stock, Invitrogen) was mixed with 30 μL propidium iodide (PI, 20 mM) into 1.0 mL of sterile dH2O. Then, 10 μL of staining mixture was added to each well and mixed thoroughly. The plates were incubated at room temperature in the dark for 15 minutes followed by plate reading at excitation wavelength at 485 nm and the fluorescence intensity at 535 nm (green emission) and 635 nm (red emission) in microplate reader (HTS 7000 plus Bio Assay Reader, PerkinElmer Inc., USA). With least-square fitting analysis, the regression equation and regression curve of the relationship between percentage of live bacteria and green/red fluorescence ratios was obtained. The regression equation was used to calculate the percentage of live cells in each well of the 96-well plate.
Therefore, the frequency of B. burgdorferi persisters in log phase and stationary phase cultures was assessed using the SYBR Green I/PI viability assay after exposure of the cultures to antimicrobials. E. coli culture was used as a control after exposure to antibiotics to validate the SYBR Green I/PI viability assay for persister frequency assessment.

[10] = tested on: round body form of B. burgdorferi; assay: SYBR Green I/PI assay on amoxicillin-induced round body form; conditions: for viability at 50 µM: Borreliella burgdorferi, 168 h, read-out: Residual viable cells (SYBR Green I/PI assay); for Ratios of green/red fluorescence, Primary screening / Ratios of green/red fluorescence, Rescreening (first column) / Ratios of green/red fluorescence, Rescreening (second column): round body form, 50 μM, 7 days
[11] = tested on: K. pneumoniae (Isolate 7); assay: Rapid SYBR Green/PI antibiotic susceptibility test, 30 minutes; assay type: cell-based, Klebsiella pneumoniae; conditions: 25 μg/mL
S. aureus USA300 = assay: MIC by broth microdilution (OD600) and SYBR Green/PI; assay type: cell-based; conditions: Staphylococcus aureus; S. aureus USA300, overnight incubation
[12] = tested on: stationary phase B. burgdorferi persisters (strain B31); conditions: drug alone; cited from earlier work
[13] = 30 minutes, ampicillin 100 μg/mL
[14] = ampicillin, streptomycin 100 μg/mL, trimethoprim 5 μg/mL
[15] = 50 μM, 7 days, stationary phase

**Q.** What does the source list for `O=C(O)c1cn(C2CC2)c2cc(N3CCNCC3)c(F)cc2c1=O` [Ciprofloxacin]?
**A.** MBC (B. burgdorferi): 16 μg/mL and 41.5 μM; cut-off (averaged proportion of killed cells) for resistant strains [1]: −0.1; cut-off (averaged proportion of killed cells) for susceptible strains [1]: −0.3; percent killed, resistant strain CA-409 ([1]; 30 minutes, kanamycin 25, ciprofloxacin 50, gentamicin 400 μg/mL): 21%; percent killed, sensitive Newman strain ([1]; 30 minutes, kanamycin 25, erythromycin 400, ciprofloxacin 50, gentamicin 400 μg/mL): 58%; MIC [2]: 0.8 to 1.6 µg/mL (≈ 2.41 to 4.83 µM)

**Q.** Which “susceptibility of parent strain H37Ra” value (M. tuberculosis H37Ra) does the source give for `NC(=O)c1cnccn1` [PZA, pyrazinamide] here?
**A.** susceptible

**Q.** Which results are given for `COc1cccc2c1C(=O)c1c(O)c3c(c(O)c1C2=O)C[C@@](O)(C(C)=O)C[C@@H]3OC1CC(N)C(O)C(C)O1.Cl` (some centres unmarked) [NSC82151, Daunorubicin hydrochloride]?
**A.** MIC against S. aureus (S. aureus): 8 to 32 µg/mL; viability at 50 µM [3]: 0%; viability at 50 µM ([4]; read-out: Activity against persisters (residual viable cell percentage)): 10%; viability at 50 µM ([4]; read-out: Residual viable cells (epifluorescence microscope counting)): 10%; MIC [2]: ≤ 0.35 µg/mL

**Q.** For `CC1(C)S[C@@H]2[C@H](NC(=O)[C@H](N)c3ccccc3)C(=O)N2[C@H]1C(=O)O` [ampicillin], which “percent killed, sensitive strain UTI89” value [5, 13] is on record?
**A.** 23%

**Q.** And the “percent killed, sensitive strain W3110” value [5, 13]?
**A.** 38%

**Q.** What about the “percent killed, resistant strain KTE181” value ([5]; 30 minutes, ampicillin 100, trimethoprim 25, streptomycin 25 μg/mL) of the same compound?
**A.** 1%

**Q.** And the “cut-off (averaged proportion of killed cells) for resistant strains” value [5, 14]?
**A.** -0.1

**Q.** What about the “cut-off (averaged proportion of killed cells) for susceptible strains” value [5, 14] of the same compound?
**A.** −0.5

**Q.** And the MIC (E. coli W3110)?
**A.** 8 µg/mL

**Q.** And the “level of persisters over 7 days (words; CFU and SYBR Green/PI)” value (E. coli UTI89 persisters)?
**A.** stayed constant

**Q.** With `COc1cccc2c1C(=O)c1c(O)c3c(c(O)c1C2=O)C[C@@](O)(C(=O)CO)C[C@@H]3O[C@H]1C[C@H](N)[C@H](O)[C@H](C)O1` [doxorubicin] as the compound, how does the “bactericidal activity by microscopic counting” value ([6]; FDA drug screen) read?
**A.** no bactericidal activity

**Q.** And the “MIC against S. aureus” value (S. aureus)?
**A.** 0.12 to 0.5 µg/mL

**Q.** What about the “activity against stationary phase B. burgdorferi (words; SYBR Green I/PI assay)” value ([7]; FDA drug screen) of the same compound?
**A.** very high activity

**Q.** Which “percent killed, sensitive strain W3110” value [5, 13] does the source give for `CO/N=C(\C(=O)N[C@@H]1C(=O)N2C(C(=O)O)=C(CSc3nc(=O)c(=O)[nH]n3C)CS[C@H]12)c1csc(N)n1` [Ceftriaxone] here?
**A.** 37%

**Q.** And the viability at 50 µM ([6]; Borreliella burgdorferi, 168 h, read-out: Residual viable cells (epifluorescence microscope counting))?
**A.** 50%

**Q.** And the viability at 10 µg/mL [8]?
**A.** 68%

**Q.** What about the “persister frequency (percentage of live cells after antibiotic treatment, in brackets)” value ([9]; 3-day log phase culture) of the same compound?
**A.** (5.8%)

**Q.** And the “persister frequency (in brackets)” value ([9]; 7-day stationary phase culture)?
**A.** (16%)

**Q.** What about the “persister frequency (in brackets)” value ([9]; 10-day stationary phase culture) of the same compound?
**A.** (~25%)

**Q.** What about the “Ratio of Green/Red fluorescence, Primary screening” value [7, 15] of the same compound?
**A.** 6.74

**Q.** And the “Ratio of Green/Red fluorescence, Rescreening (first column)” value [7, 15]?
**A.** 6.89

**Q.** What about the “Ratio of Green/Red fluorescence, Rescreening (second column)” value [7, 15] of the same compound?
**A.** 6.78

**Q.** And the viability at 50 µM ([7]; Borreliella burgdorferi, 168 h, read-out: Residual viable cells (regression equation, SYBR Green I/PI assay))?
**A.** 44%

**Q.** And the viability at 50 µM [10]?
**A.** 36%

**Q.** What about the “Ratios of green/red fluorescence, Primary screening” value [10] of the same compound?
**A.** 6.37

**Q.** And the “Ratios of green/red fluorescence, Rescreening (first column)” value [10]?
**A.** 6.29

**Q.** And the “Ratios of green/red fluorescence, Rescreening (second column)” value [10]?
**A.** 6.39

**Q.** What about the “killing of resistant K. pneumoniae strain” value [11] of the same compound?
**A.** not killed at all

**Q.** What does the source list for `CO/N=C(\C(=O)N[C@@H]1C(=O)N2C(C(=O)O)=C(COC(C)=O)CS[C@H]12)c1csc(N)n1` [cefotaxime]?
**A.** percent killed, sensitive strain W3110 [5, 13]: 24%; killing of resistant K. pneumoniae strain [11]: not killed at all

**Q.** With `O=C(N[C@H](CO)[C@H](O)c1ccc([N+](=O)[O-])cc1)C(Cl)Cl` [chloramphenicol] as the compound, how does the MIC (S. aureus USA300) read?
**A.** 4 µg/mL (≈ 12.4 µM)

**Q.** And the “cut-off (averaged proportion of killed cells) for resistant strains” value [1]?
**A.** −0.1

**Q.** What about the “cut-off (averaged proportion of killed cells) for susceptible strains” value [1] of the same compound?
**A.** −0.5

**Q.** With `Cc1ccc(C(C)C)c(O)c1` [Thymol] as the compound, how does the “residual live cell percentage, stationary phase, previous drug screen” value [12] read?
**A.** 82%

**Q.** What about the viability at 50 µM [10] of the same compound?
**A.** 34%

**Q.** And the “Ratios of green/red fluorescence, Primary screening” value [10]?
**A.** 6.15

**Q.** And the “Ratios of green/red fluorescence, Rescreening (first column)” value [10]?
**A.** 6.36

**Q.** And the “Ratios of green/red fluorescence, Rescreening (second column)” value [10]?
**A.** 6.36
